In the experiment the test system is CD2F1 mice, L1210 leukemia ip, survival T/C. The experiment in a line: NCI In Vivo Anticancer Drug Screen. Data for tumor model L1210 Leukemia (intraperitoneal) in CD2F1 (CDF1) mice. The settings on record: higher = longer survival. The essentials: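 Implant tumor; dose compound or vehicle; measure endpoint in both groups; report treated divided by control.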

The mark [1] stands for this setting: endpoint: mean survival time, dose: 100.0 mg/kg/injection, schedule: Q04DX003 (ip), vehicle: saline with Tween-80.
Where [2] appears, read: endpoint: mean survival time, dose: 200.0 mg/kg/injection, schedule: Q04DX003 (ip), vehicle: saline with Tween-80.
Setting [3] is: endpoint: mean survival time, dose: 400.0 mg/kg/injection, schedule: Q04DX003 (ip), vehicle: saline with Tween-80.
[4] abbreviates: endpoint: mean survival time, dose: 100.0 mg/kg/injection, schedule: Q01DX009 (ip), vehicle: saline with Tween-80.
The mark [5] stands for this setting: endpoint: mean survival time, dose: 200.0 mg/kg/injection, schedule: Q01DX009 (ip), vehicle: saline with Tween-80.
[6] abbreviates: endpoint: mean survival time, dose: 100.0 mg/kg/injection, schedule: Q01DX001 (ip), vehicle: saline with Tween-80.
The mark [7] stands for this setting: endpoint: mean survival time, dose: 200.0 mg/kg/injection, schedule: Q01DX001 (ip), vehicle: saline with Tween-80.
Where [8] appears, read: endpoint: mean survival time, dose: 400.0 mg/kg/injection, schedule: Q01DX001 (ip), vehicle: saline with Tween-80.
Where [9] appears, read: endpoint: mean survival time, dose: 400.0 mg/kg/injection, schedule: Q01DX009 (ip), vehicle: saline with Tween-80.

SMILES strings stand for the structures. Inconclusive results and toxic doses are left out.

With `CCCCCCCCCCCCOB(OCCCCCCCCCCCC)OCCCCCCCCCCCC`, the T/C is, setting by setting: under setting [1], 95 % of control; under setting [2], 103 % of control; under setting [3], 94 % of control.
Consider `Nc1ccc(C(=O)CCCN2CCCCC2)cc1`, for which the T/C is 107 % of control (endpoint: mean survival time, dose: 12.5 mg/kg/injection, schedule: Q04DX003 (ip), vehicle: saline); 95 % of control (endpoint: mean survival time, dose: 25.0 mg/kg/injection, schedule: Q04DX003 (ip), vehicle: saline); 107 % of control (endpoint: mean survival time, dose: 50.0 mg/kg/injection, schedule: Q04DX003 (ip), vehicle: saline).
Take `CC(=O)CC(O)(C(F)(F)F)C(F)(F)F`: the T/C reads like this: (endpoint: mean survival time, dose: 50.0 mg/kg/injection, schedule: Q01DX009 (ip), vehicle: saline with Tween-80) 101 % of control; under setting [4], 102 % of control; under setting [1], 102 % of control; under setting [5], 101 % of control; under setting [2], 89 % of control.
For the compound `S=C(NNc1ccccc1)NC1CCCCC1`, the T/C by setting is: (endpoint: mean survival time, dose: 25.0 mg/kg/injection, schedule: Q01DX009 (ip), vehicle: acetone) 96 % of control; (endpoint: mean survival time, dose: 50.0 mg/kg/injection, schedule: Q01DX009 (ip), vehicle: acetone) 100 % of control; (endpoint: mean survival time, dose: 100.0 mg/kg/injection, schedule: Q01DX009 (ip), vehicle: acetone) 96 % of control.
As for `C=CC(NC(=O)CN)C(=O)O` (stereo unspecified), the T/C by setting is: under setting [6], 115 % of control; (endpoint: mean survival time, dose: 100.0 mg/kg/injection, schedule: Q04DX002 (ip), vehicle: saline) 107 % of control; under setting [7], 105 % of control; (endpoint: mean survival time, dose: 200.0 mg/kg/injection, schedule: Q04DX002 (ip), vehicle: saline) 93 % of control; under setting [8], 114 % of control; (endpoint: mean survival time, dose: 400.0 mg/kg/injection, schedule: Q04DX002 (ip), vehicle: saline) 110 % of control.
`CC1OC(n2cc(Cl)c(=O)[nH]c2=O)C2OC(C)(C)OC2C1=O` (stereo unspecified): the T/C is, setting by setting: (endpoint: median survival time, dose: 25.0 mg/kg/injection, schedule: Q01DX005 (ip), vehicle: Klucel (hydroxypropylcellulose) (HPC)) 102 % of control; (endpoint: median survival time, dose: 50.0 mg/kg/injection, schedule: Q01DX005 (ip), vehicle: Klucel (hydroxypropylcellulose) (HPC)) 100 % of control; (endpoint: median survival time, dose: 100.0 mg/kg/injection, schedule: Q01DX005 (ip), vehicle: Klucel (hydroxypropylcellulose) (HPC)) 102 % of control; (endpoint: median survival time, dose: 200.0 mg/kg/injection, schedule: Q01DX005 (ip), vehicle: Klucel (hydroxypropylcellulose) (HPC)) 107 % of control.
As for `CC1(C)CC(=O)N(Cc2ccccc2)N1C(=O)c1ccccc1`, the T/C is, setting by setting: under setting [6], 113 % of control; under setting [7], 106 % of control; under setting [8], 101 % of control.
On to `CCCCOC(=O)Cc1c(C)[nH]c2ccc(-c3ccccc3)cc12`, for which the T/C reads like this: (endpoint: mean survival time, dose: 50.0 mg/kg/injection, schedule: Q04DX002 (ip), vehicle: saline with Tween-80) 102 % of control; (endpoint: mean survival time, dose: 100.0 mg/kg/injection, schedule: Q04DX002 (ip), vehicle: saline with Tween-80) 102 % of control; (endpoint: mean survival time, dose: 200.0 mg/kg/injection, schedule: Q04DX002 (ip), vehicle: saline with Tween-80) 97 % of control.
Consider `NNC(=O)Nc1ccccc1`, for which the T/C by setting is: (endpoint: mean survival time, dose: 6.25 mg/kg/injection, schedule: Q01DX001 (ip), vehicle: saline with Tween-80) 102 % of control; (endpoint: mean survival time, dose: 12.5 mg/kg/injection, schedule: Q01DX001 (ip), vehicle: saline with Tween-80) 102 % of control; (endpoint: mean survival time, dose: 25.0 mg/kg/injection, schedule: Q01DX001 (ip), vehicle: saline with Tween-80) 97 % of control.
For the compound `COC(=O)c1ncn(C2OC(COC(=O)c3ccccc3)C(OC(=O)c3ccccc3)C2OC(=O)c2ccccc2)c1C(=O)OC` (stereo unspecified), the T/C is 93 % of control (endpoint: median survival time, dose: 8.75 mg/kg/injection, schedule: Q01DX005 (ip), vehicle: distilled water + Tween-80); 97 % of control (endpoint: median survival time, dose: 12.5 mg/kg/injection, schedule: Q01DX005 (ip), vehicle: distilled water + Tween-80); 90 % of control (endpoint: median survival time, dose: 25.0 mg/kg/injection, schedule: Q01DX005 (ip), vehicle: distilled water + Tween-80); 103 % of control (endpoint: median survival time, dose: 35.0 mg/kg/injection, schedule: Q01DX005 (ip), vehicle: distilled water + Tween-80); 88 % of control (endpoint: median survival time, dose: 50.0 mg/kg/injection, schedule: Q01DX005 (ip), vehicle: distilled water + Tween-80); 92 % of control (endpoint: median survival time, dose: 100.0 mg/kg/injection, schedule: Q01DX005 (ip), vehicle: distilled water + Tween-80). For the same compound, the T/C is, setting by setting: (endpoint: median survival time, dose: 140.0 mg/kg/injection, schedule: Q01DX005 (ip), vehicle: distilled water + Tween-80) 89 % of control; (endpoint: median survival time, dose: 200.0 mg/kg/injection, schedule: Q01DX005 (ip), vehicle: distilled water + Tween-80) 97 % of control.
Take `O=C(O)CCOc1ccc([N+](=O)[O-])cc1`: the T/C under setting [4] is 96 % of control, the T/C under setting [5] was 98 % of control and the T/C under setting [9] is 94 % of control.
Turning to `CC(=O)NC(C)(NC(C)=O)C(=O)O`, the T/C is 95 % of control (endpoint: mean survival time, dose: 50.0 mg/kg/injection, schedule: Q01DX009 (ip), vehicle: Klucel (hydroxypropylcellulose) (HPC)); 98 % of control (endpoint: mean survival time, dose: 100.0 mg/kg/injection, schedule: Q01DX009 (ip), vehicle: Klucel (hydroxypropylcellulose) (HPC)); 95 % of control (endpoint: mean survival time, dose: 200.0 mg/kg/injection, schedule: Q01DX009 (ip), vehicle: Klucel (hydroxypropylcellulose) (HPC)).
With `CCCCCCCCCCCCCC[N+]1(CC)CCCCC1`, the T/C is 100 % of control (endpoint: mean survival time, dose: 0.12 mg/kg/injection, schedule: Q01DX009 (ip), vehicle: saline); 103 % of control (endpoint: mean survival time, dose: 0.39 mg/kg/injection, schedule: Q01DX009 (ip), vehicle: saline); 106 % of control (endpoint: mean survival time, dose: 0.78 mg/kg/injection, schedule: Q01DX009 (ip), vehicle: saline); 97 % of control (endpoint: mean survival time, dose: 1.56 mg/kg/injection, schedule: Q01DX009 (ip), vehicle: saline).
For `CN(C)Cc1cn(C2CC(O)C(CO)O2)c(=O)[nH]c1=O` (stereo unspecified), the T/C by setting is: (endpoint: mean survival time, dose: 12.5 mg/kg/injection, schedule: Q01DX005 (ip), vehicle: water) 101 % of control; (endpoint: mean survival time, dose: 25.0 mg/kg/injection, schedule: Q01DX005 (ip), vehicle: water) 98 % of control; (endpoint: mean survival time, dose: 50.0 mg/kg/injection, schedule: Q01DX005 (ip), vehicle: water) 104 % of control; (endpoint: mean survival time, dose: 100.0 mg/kg/injection, schedule: Q01DX005 (ip), vehicle: water) 106 % of control; (endpoint: mean survival time, dose: 200.0 mg/kg/injection, schedule: Q01DX005 (ip), vehicle: water) 104 % of control.
Take `c1ccc2c(c1)nnn1c3ncccc3nc21`: the T/C reads like this: (endpoint: mean survival time, dose: 75.0 mg/kg/injection, schedule: Q01DX001 (ip), vehicle: saline) 98 % of control; (endpoint: mean survival time, dose: 150.0 mg/kg/injection, schedule: Q01DX001 (ip), vehicle: saline) 92 % of control; (endpoint: mean survival time, dose: 300.0 mg/kg/injection, schedule: Q01DX001 (ip), vehicle: saline) 93 % of control.
Consider `CC(C)NC(=O)N(CCCCBr)N=O`, for which the T/C (endpoint: median survival time, dose: 12.0 mg/kg/injection, schedule: Q01DX009 (ip), vehicle: Klucel (hydroxypropylcellulose) (HPC)) was 108 % of control; the T/C (endpoint: median survival time, dose: 25.0 mg/kg/injection, schedule: Q01DX009 (ip), vehicle: Klucel (hydroxypropylcellulose) (HPC)) is 116 % of control; the T/C (endpoint: median survival time, dose: 50.0 mg/kg/injection, schedule: Q01DX009 (ip), vehicle: Klucel (hydroxypropylcellulose) (HPC)) was 124 % of control; the T/C (endpoint: median survival time, dose: 100.0 mg/kg/injection, schedule: Q01DX009 (ip), vehicle: Klucel (hydroxypropylcellulose) (HPC)) was 160 % of control; the T/C (endpoint: median survival time, dose: 200.0 mg/kg/injection, schedule: Q01DX009 (ip), vehicle: Klucel (hydroxypropylcellulose) (HPC)) is 112 % of control.
As for `CC(=O)NC1CCCC(O)C1` (stereo unspecified), the T/C (endpoint: mean survival time, dose: 100.0 mg/kg/injection, schedule: Q04DX003 (ip), vehicle: saline) was 102 % of control; the T/C (endpoint: mean survival time, dose: 200.0 mg/kg/injection, schedule: Q04DX003 (ip), vehicle: saline) is 95 % of control; the T/C (endpoint: mean survival time, dose: 400.0 mg/kg/injection, schedule: Q04DX003 (ip), vehicle: saline) was 101 % of control.
As for `Cc1c2c(cc3c1[nH]c1ccccc13)C(c1ccc(Cl)cc1)=NCC2`, the T/C by setting is: under setting [4], 101 % of control; under setting [1], 101 % of control; under setting [5], 98 % of control; under setting [2], 89 % of control; under setting [9], 106 % of control; under setting [3], 88 % of control.
For the compound `Cc1cc(Br)ccc1C(=O)O`, the T/C is 94 % of control under setting [6], 91 % of control under setting [7] and 102 % of control under setting [8].

Values taken from PubChem BioAssay AID256 (DTP/NCI, 2004).
